Assay: xn = mol fraction of the nth substance listed
Settings: Liquid, Vibrating tube method

CCCCCCCO [heptan-1-ol] + CCCCOCCCC
mass density [kg/m3]
Settings | x2 = 0 | x2 = 0.1488 | x2 = 0.3201 | x2 = 0.4944 | x2 = 0.7014 | x2 = 0.8534
333.15 K, 140000 kPa | – | 857.7 | 850.3 | 843.3 | 834.8 | 829
353.15 K, 100 kPa | 778.1 | 768 | 756.6 | 745.6 | 732.4 | 723.4
353.15 K, 1000 kPa | 778.8 | 768.8 | 757.4 | 746.6 | 733.4 | 724.5
353.15 K, 5000 kPa | 782.3 | 772.5 | 761.4 | 750.8 | 738 | 729.4
353.15 K, 10000 kPa | 786.3 | 776.8 | 766 | 755.8 | 743.3 | 735
353.15 K, 15000 kPa | 790.2 | 781 | 770.4 | 760.4 | 748.4 | 740.3
353.15 K, 20000 kPa | 793.9 | 784.8 | 774.5 | 764.8 | 753.1 | 745.2
353.15 K, 25000 kPa | 797.3 | 788.5 | 778.4 | 768.9 | 757.4 | 749.8
353.15 K, 30000 kPa | 800.7 | 792.1 | 782.3 | 772.9 | 761.7 | 754.1
353.15 K, 35000 kPa | 804 | 795.5 | 785.8 | 776.7 | 765.6 | 758.3
353.15 K, 40000 kPa | 807.1 | 798.6 | 789.2 | 780.1 | 769.4 | 762.1
353.15 K, 45000 kPa | 810 | 801.8 | 792.5 | 783.7 | 773 | 765.9
353.15 K, 50000 kPa | 813 | 804.9 | 795.8 | 787.1 | 776.7 | 769.6
353.15 K, 55000 kPa | 815.8 | 807.8 | 798.8 | 790.2 | 779.9 | 773.1
353.15 K, 60000 kPa | 818.6 | 810.7 | 801.8 | 793.3 | 783.2 | 776.5
353.15 K, 65000 kPa | 821.2 | 813.5 | 804.7 | 796.4 | 786.3 | 779.7
353.15 K, 70000 kPa | 823.8 | 816.2 | 807.5 | 799.3 | 789.5 | 782.9
353.15 K, 80000 kPa | 828.7 | 821.2 | 812.8 | 804.8 | 795.2 | 788.8
353.15 K, 90000 kPa | 833.5 | 826.2 | 817.9 | 810.1 | 800.7 | 794.4
353.15 K, 100000 kPa | 837.9 | 830.8 | 822.7 | 815.1 | 805.9 | 799.8
353.15 K, 110000 kPa | 842.3 | 835.3 | 827.4 | 819.9 | 810.9 | 804.9
353.15 K, 120000 kPa | 846.4 | 839.5 | 831.8 | 824.4 | 815.6 | 809.7
353.15 K, 130000 kPa | 850.3 | 843.7 | 836 | 828.7 | 820.1 | 814.2
353.15 K, 140000 kPa | 854.3 | 847.6 | 840.1 | 833 | 824.5 | 818.7
373.15 K, 100 kPa | 761.9 | – | – | – | – | –
373.15 K, 1000 kPa | 762.8 | 752.3 | 740.4 | 729.1 | 715.4 | 706.3
373.15 K, 5000 kPa | 766.6 | 756.5 | 744.8 | 733.9 | 720.7 | 711.9
373.15 K, 10000 kPa | 771.1 | 761.3 | 750 | 739.6 | 726.7 | 718.3
373.15 K, 15000 kPa | 775.5 | 765.9 | 754.9 | 744.8 | 732.4 | 724.2
373.15 K, 20000 kPa | 779.5 | 770.2 | 759.5 | 749.6 | 737.6 | 729.7
373.15 K, 25000 kPa | 783.4 | 774.3 | 763.9 | 754.3 | 742.5 | 734.8
373.15 K, 30000 kPa | 787.1 | 778.1 | 768 | 758.6 | 747.2 | 739.6
373.15 K, 35000 kPa | 790.6 | 781.9 | 772 | 762.7 | 751.6 | 744.1
373.15 K, 40000 kPa | 794 | 785.4 | 775.7 | 766.7 | 755.7 | 748.5
373.15 K, 45000 kPa | 797.2 | 788.9 | 779.3 | 770.5 | 759.7 | 752.7
373.15 K, 50000 kPa | 800.3 | 792.1 | 782.7 | 774 | 763.4 | 756.5
373.15 K, 55000 kPa | 803.4 | 795.2 | 786 | 777.5 | 767.1 | 760.3
373.15 K, 60000 kPa | 806.3 | 798.3 | 789.2 | 780.8 | 770.6 | 763.9
373.15 K, 65000 kPa | 809.2 | 801.3 | 792.3 | 784 | 774 | 767.4
373.15 K, 70000 kPa | 811.9 | 804.1 | 795.3 | 787.1 | 777.2 | 770.6
373.15 K, 80000 kPa | 817.2 | 809.7 | 801.1 | 793.1 | 783.5 | 777.1
373.15 K, 90000 kPa | 822.3 | 814.9 | 806.5 | 798.7 | 789.3 | 783.1
373.15 K, 100000 kPa | 827 | 819.8 | 811.5 | 803.9 | 794.8 | 788.7
373.15 K, 110000 kPa | 831.6 | 824.5 | 816.5 | 809.1 | 800 | 794
373.15 K, 120000 kPa | 835.9 | 829 | 821.1 | 813.8 | 805 | 799.1
373.15 K, 130000 kPa | 840.2 | 833.4 | 825.6 | 818.4 | 809.8 | 803.9
373.15 K, 140000 kPa | 844.1 | 837.4 | 829.8 | 822.8 | 814.3 | 808.6
393.15 K, 100 kPa | 744.9 | – | – | – | – | –
393.15 K, 1000 kPa | 745.8 | 734.9 | 722.5 | 710.7 | 696.6 | 687.4
393.15 K, 5000 kPa | 750.2 | 739.7 | 727.6 | 716.3 | 702.7 | 693.9
393.15 K, 10000 kPa | 755.3 | 745.1 | 733.5 | 722.7 | 709.7 | 701.2
393.15 K, 15000 kPa | 760.1 | 750.3 | 739 | 728.6 | 716 | 708
393.15 K, 20000 kPa | 764.6 | 755.1 | 744.2 | 734 | 721.9 | 714
393.15 K, 25000 kPa | 768.8 | 759.6 | 749 | 739.1 | 727.4 | 719.7
393.15 K, 30000 kPa | 772.9 | 763.8 | 753.5 | 743.9 | 732.4 | 725
393.15 K, 35000 kPa | 776.8 | 767.9 | 757.8 | 748.5 | 737.3 | 730
393.15 K, 40000 kPa | 780.4 | 771.8 | 761.9 | 752.7 | 741.8 | 734.8
393.15 K, 45000 kPa | 783.9 | 775.4 | 765.8 | 756.8 | 746 | 739.1
393.15 K, 50000 kPa | 787.3 | 779 | 769.4 | 760.7 | 750.1 | 743.4
393.15 K, 55000 kPa | 790.7 | 782.5 | 773.2 | 764.5 | 754.2 | 747.5
393.15 K, 60000 kPa | 793.8 | 785.7 | 776.5 | 768 | 757.9 | 751.3
393.15 K, 65000 kPa | 796.8 | 788.9 | 779.8 | 771.4 | 761.5 | 755
393.15 K, 70000 kPa | 799.8 | 792 | 783.1 | 774.9 | 765 | 758.7
393.15 K, 80000 kPa | 805.5 | 797.8 | 789.2 | 781.2 | 771.6 | 765.4
393.15 K, 90000 kPa | 810.9 | 803.5 | 795 | 787.2 | 777.9 | 771.8
393.15 K, 100000 kPa | 815.9 | 808.6 | 800.4 | 792.8 | 783.6 | 777.7
393.15 K, 110000 kPa | 820.8 | 813.7 | 805.6 | 798.2 | 789.3 | 783.5
393.15 K, 120000 kPa | 825.3 | 818.3 | 810.4 | 803.1 | 794.3 | 788.7
393.15 K, 130000 kPa | 829.8 | 822.9 | 815.1 | 808 | 799.4 | 793.8
393.15 K, 140000 kPa | 834 | 827.3 | 819.7 | 812.7 | 804.2 | 798.7

— the NIST ThermoML archive (doi:10.1016/j.jct.2018.11.010)
